Test results from article PMC12166061, “Crystallographic fragment screening reveals ligand hotspots in TRIM21 PRY-SPRY domain” (Communications Chemistry, 2025).
Like-named read-outs stand apart in the source and are kept apart here.

Key:
Assay type in all cases: binding
[1] = biological target: T1, murine TRIM21 PRY-SPRY domain (Mus musculus, UniProt Q62191); experiment: Differential scanning fluorimetry (DSF, ΔTm), mouse TRIM21 PRY-SPRY domain
T1 construct: mouse TRIM21 PRY-SPRY domain (residues V291-M470, UniProt-ID: Q62191); made in house; host or cells: E. coli BL21(DE3)
T1 sequence (Q62191 291-470): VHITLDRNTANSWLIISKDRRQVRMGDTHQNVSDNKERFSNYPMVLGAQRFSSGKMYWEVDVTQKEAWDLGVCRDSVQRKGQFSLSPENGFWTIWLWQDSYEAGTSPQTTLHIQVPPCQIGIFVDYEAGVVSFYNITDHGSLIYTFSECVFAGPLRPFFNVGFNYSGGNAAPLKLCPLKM
Protocol: (§1) Briefly, recombinant murine and human TRIM21 PRY-SPRY domain at a concentration of 8 μM were mixed with 2 mM compound in their respective SEC buffer. SYPRO Orange (5000×, Invitrogen) was added as a fluorescence probe (1 µl per mL). Subsequently, temperature-dependent protein unfolding profiles were measured using the QuantStudio™ 5 realtime PCR machine (Thermo Fisher). Excitation and emission filters were set to 465 nm and 590 nm, respectively. The temperature was raised with a step rate of 3 °C per minute. Data points were analysed with the internal software (Thermal Shift SoftwareTM Version 1.4, Thermo Fisher) using the Boltzmann equation to determine the inflection point of the transition curve.

[2] = biological target: T2, human TRIM21 PRY-SPRY domain (Homo sapiens, UniProt P19474); experiment: Differential scanning fluorimetry (DSF, ΔTm), human TRIM21 PRY-SPRY domain
T2 construct: Human TRIM21 PRY-SPRY domain (residues V287-I465, UniProt-ID: P19474); His6 (N, cleaved yes); SUMO (N, cleaved yes); made in house; host or cells: E. coli BL21(DE3)
Protocol: as §1

His-mTRIM21 PRYSPRY = biological target: T3, His-mTRIM21 PRYSPRY (Mus musculus, UniProt Q62191); experiment: SPR fragment screening and dose response, mouse TRIM21 PRY-SPRY
T3 construct: mouse TRIM21 PRY-SPRY domain (residues V291-M470, UniProt-ID: Q62191); made in house; host or cells: E. coli BL21(DE3)
T3 sequence (Q62191 291-470): T1 sequence (Q62191 291-470)
Protocol: (§2) His-mTRIM21 PRYSPRY and His-SUMO-hTRIM21 PRY-SPRY were immobilized onto flow channels (FC) FC2, FC3, and FC4 of a Series S sensor chip NTA (Cytiva). […] Proteins (10–20 µg mL^−1 in HBS-P+) were injected at 10 µL min^−1 to achieve response levels of 3500–4300 RU for mTRIM21 and 3600–4000 RU for hTRIM21. Flow channel 1 (FC1) was used as a reference surface. Surface deactivation and nickel stripping were achieved using 1 M ethanolamine and 350 mM ethylenediaminetetraacetic acid (EDTA), respectively.
(§3) Fragment screening was conducted by injecting 500 µM fragments diluted in running buffer (HBS-P+ with 1 mM TCEP and 2% (v/v) dimethyl sulfoxide (DMSO)) over all flow-channels for 30 s at 30 µL/min^−1. To account for surface drift, 50 µM of a control compound (Suramin) was injected every 15 fragment injections, and blank injections were performed every 5 fragments. Responses were analyzed by blank subtraction, reference subtraction (FC1), solvent correction, molecular weight adjustment, and drift correction using Biacore T200 Evaluation Software v3.2.1. The binding threshold for fragment hits was set based on the Suramin-binding response level.
The data was solvent-corrected, reference-subtracted (FC1), and blank-subtracted using the T200 Evaluation Software v3.2.1. Sensorgrams were subsequently replotted using Graphpad v.9 software.

[3] = biological target: T4, His-SUMO-hTRIM21 PRY-SPRY (Homo sapiens, UniProt P19474); experiment: SPR fragment screening, human TRIM21 PRY-SPRY
T4 construct: Human TRIM21 PRY-SPRY domain (residues V287-I465, UniProt-ID: P19474); made in house; host or cells: E. coli BL21(DE3)
Protocol: as §2, §3

[4] = single dose 500 µM fragment, relative response, suramin reference threshold 100 relative RU

T2 sequence (P19474 287-465): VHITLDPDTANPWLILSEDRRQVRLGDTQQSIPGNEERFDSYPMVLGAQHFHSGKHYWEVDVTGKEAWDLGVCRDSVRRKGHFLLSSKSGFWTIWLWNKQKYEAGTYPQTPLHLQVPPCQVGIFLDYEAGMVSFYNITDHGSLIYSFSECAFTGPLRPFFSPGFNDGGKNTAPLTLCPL
T4 sequence (P19474 287-465): as above

SMILES | Tm-shift mTRIM21 ([1]; 2 mM compound, 8 μM protein) | Tm-Shift hTRIM21 ([2]; 2 mM compound, 8 μM protein) | SPR mTRIM21 (Response) (His-mTRIM21 PRYSPRY; [4]) | SPR hTRIM21 (Response) [3, 4] | Tm-shift mTRIM21 [1] | Tm-Shift hTRIM21 [2] | SPR mTRIM21 (Response) (His-mTRIM21 PRYSPRY) | SPR hTRIM21 (Response) [3]
CC(=O)NC1CNc2ccccc2C1 (stereo not shown) [Fragment Z1492796719] | -0.1 °C | -0.1 °C | 54.86 | 55.11 | – | – | – | –
NC(=O)N1CCN(C(=O)c2ccco2)CC1 [Fragment Z198194396] | -0.2 °C | -0.2 °C | 38.54 | 34.19 | – | – | – | –
O=C1CN(Cc2ccccc2)CC(=O)N1 [Fragment Z3220108246] | -0.5 °C | -0.1 °C | 58.83 | 60.94 | – | – | – | –
CC(CS(N)(=O)=O)c1ccccc1 (stereo not shown) [Fragment Z1407673036] | -0.3 °C | -0.4 °C | 43.51 | 47.04 | – | – | – | –
O=C(c1ccco1)N1CCN(C(=O)C2CC2)CC1 [Fragment Z32327641] | -0.2 °C | 0 °C | 37.82 | 35.48 | – | – | – | –
OC1CN(C(c2ccccc2)c2ccccc2)C1 [Fragment Z1696844792] | -0.5 °C | -0.8 °C | 107.8 | 122.6 | – | – | – | –
CC(NC(=O)C1CC1)c1cccnc1 (stereo not shown) [Fragment Z220996120] | -0.1 °C | 0 °C | 171.5 | 149.8 | – | – | – | –
Cc1cc(N2CCNCC2)nc(C)n1 [Fragment Z274575916] | 0 °C | 0.2 °C | 164.1 | 76.44 | – | – | – | –
CCC(NC)c1ccncc1 (stereo not shown) [Fragment Z1250132788] | 0 °C | -0.1 °C | 53.11 | 50.74 | – | – | – | –
Cc1cc(N2CCCCC2)nc(CO)n1 [Fragment Z1980894300] | -0.2 °C | 0 °C | 77.01 | 66.59 | – | – | – | –
CN(CC(=O)N1CCCCC1)S(C)(=O)=O [Fragment Z363071686] | – | – | – | – | -0.1 °C | -0.2 °C | 39.85 | 20.46
NS(=O)(=O)c1ccccc1OC(F)F [Fragment Z1003146540] | -0.1 °C | 0.5 °C | 35.49 | 38.84 | – | – | – | –
O=C(NC1CC1)c1ccc2c(c1)OCO2 [Fragment Z32367954] | – | – | – | – | -0.3 °C | -0.6 °C | 59.37 | 68.73
CNC(=O)C1CNCCO1 (stereo not shown) [Fragment Z1636723439] | 0.4 °C | 0.1 °C | 142.5 | 46.15 | – | – | – | –
CCCn1c(NC(=O)CC)nc2ccccc21 [Fragment Z29077827] | -0.6 °C | -0.7 °C | 54.53 | 48.46 | – | – | – | –
CN(C)C(=O)c1ccc2c(c1)CCCN2 [Fragment Z1222331430] | – | – | – | – | -0.2 °C | -0.2 °C | 51.36 | 70.74
CCC(=O)N1CCCC(NS(C)(=O)=O)C1 (stereo not shown) [Fragment Z405825414] | -0.2 °C | 0 °C | 27.91 | 27.61 | – | – | – | –
O=C(c1csnn1)N1CCOCC1 [Fragment Z741055844] | -0.2 °C | -0.1 °C | 32.54 | 28.98 | – | – | – | –
CCOc1ccccc1N1CCNCC1.Cl [Fragment Z425387594] | – | – | – | – | -0.1 °C | 0 °C | 98.47 | 61.98

SMILES | Tm-shift mTRIM21 ([1]; 2 mM compound, 8 μM protein) | Tm-Shift hTRIM21 ([2]; 2 mM compound, 8 μM protein) | SPR mTRIM21 (Response) (His-mTRIM21 PRYSPRY; [4]) | SPR hTRIM21 (Response) [3, 4] | Tm-shift mTRIM21 [1] | Tm-Shift hTRIM21 [2] | SPR mTRIM21 (Response) (His-mTRIM21 PRYSPRY) | SPR hTRIM21 (Response) [3]
Cc1c(C(C)NS(C)(=O)=O)cnn1C (stereo not shown) [Fragment Z369263636] | -0.1 °C | 0.1 °C | 35.15 | 36.54 | – | – | – | –
O=C(O)COCc1ccccc1 [Fragment Z993967070] | – | – | – | – | -0.3 °C | 0 °C | 63.84 | 56.18
CC(C)N(C)c1ncnc2c1cnn2C [Fragment Z328695024] | -0.6 °C | -0.6 °C | 47.77 | 48.11 | – | – | – | –
CCc1nnc(NC(=O)C2CCCO2)s1 (stereo not shown) [Fragment Z26823525] | -0.2 °C | -0.4 °C | 54.46 | 48.81 | – | – | – | –
CS(=O)(=O)NCCc1ccccc1 [Fragment Z45617795] | -0.3 °C | -0.2 °C | 50.84 | 53.67 | – | – | – | –
CN1CCOC(CNc2nccs2)C1 (stereo not shown) [Fragment Z1002247062] | -0.1 °C | -0.2 °C | 105 | 20.86 | – | – | – | –
CCOC(=O)CN1CCS(=O)(=O)CC1 [Fragment Z793778804] | 0 °C | 0.1 °C | 30.52 | 29.17 | – | – | – | –
c1cc(NCC2CCCO2)ccn1 (stereo not shown) [Fragment Z1267882044] | 0 °C | -0.1 °C | 85.46 | 39.64 | – | – | – | –
Cc1nsc(N2CCCNCC2)n1 [Fragment Z1578665941] | -0.1 °C | 0.1 °C | 154 | 59.22 | – | – | – | –
Cc1cccc(C(=O)N2CCC(C(N)=O)CC2)c1 [Fragment Z32400357] | -0.4 °C | -0.1 °C | 57.58 | 52.75 | – | – | – | –
CN(C)c1noc(C2CCNCC2)n1 [Fragment Z1742054999] | – | – | – | – | 0 °C | -0.2 °C | 84.81 | 41.66
CCc1nc(Cn2ccccc2=O)no1 [Fragment Z1162778919] | -0.2 °C | -0.1 °C | 48.28 | 44.97 | – | – | – | –
CC(=O)NCCc1ccccc1C [Fragment Z52314092] | -0.3 °C | -0.4 °C | 79.62 | 75.76 | – | – | – | –
CCc1csc(-c2c[nH]cn2)n1 [Fragment Z1530301542] | -0.1 °C | 0.1 °C | 39.06 | 45.06 | – | – | – | –
CNC(=O)c1ccc(S(N)(=O)=O)cc1 [Fragment Z165170770] | -0.4 °C | 0 °C | 49.37 | 49.74 | – | – | – | –
CC(O)c1cnn(C2CCCC2)c1 (stereo not shown) [Fragment Z2004563941] | -0.2 °C | 0 °C | 41.62 | 39.09 | – | – | – | –
O=C(COC(F)F)N1CC2CCCC2C1 (stereo not shown) [Fragment Z2072621991] | – | – | – | – | 0 °C | -0.2 °C | 46.61 | 28.49
CC(=O)Nc1ccc(CN2CCOCC2)cc1 [Fragment Z57450788] | 0 °C | 0.4 °C | 64.68 | 43.78 | – | – | – | –
